According to paper PMC11859905, “Flavonoids as Potential Modulators of Pancreatic Lipase Catalytic Activity” (Pharmaceutics, 2025):
Read-outs that look alike come from different tables or passages of the source.

What was measured:
human pancreatic lipase = biological target: T1, human pancreatic lipase (Homo sapiens, UniProt P16233); experiment: In vitro assay using human pancreatic lipase (4-MUO hydrolysis, fluorometric); format: biochemical; conditions: for inhibitory activity against HPL (in words): at the maximum concentration that could be tested; for IC50: human PL 2 U/mL, 4-MUO 0.05 mM, mean ± SEM;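 on all read-outs here: Read-out is the initial rate of fluorescent 4-MU release as HPL cleaves the 4-MUO substrate, a rate that scales with the amount of enzyme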
T1 construct: PL from the human pancreas (triacylglycerol acyl hydrolase, EC 3.1.1.3); from tissue; host or cells: human pancreas
T1 sequence (P16233 17-465): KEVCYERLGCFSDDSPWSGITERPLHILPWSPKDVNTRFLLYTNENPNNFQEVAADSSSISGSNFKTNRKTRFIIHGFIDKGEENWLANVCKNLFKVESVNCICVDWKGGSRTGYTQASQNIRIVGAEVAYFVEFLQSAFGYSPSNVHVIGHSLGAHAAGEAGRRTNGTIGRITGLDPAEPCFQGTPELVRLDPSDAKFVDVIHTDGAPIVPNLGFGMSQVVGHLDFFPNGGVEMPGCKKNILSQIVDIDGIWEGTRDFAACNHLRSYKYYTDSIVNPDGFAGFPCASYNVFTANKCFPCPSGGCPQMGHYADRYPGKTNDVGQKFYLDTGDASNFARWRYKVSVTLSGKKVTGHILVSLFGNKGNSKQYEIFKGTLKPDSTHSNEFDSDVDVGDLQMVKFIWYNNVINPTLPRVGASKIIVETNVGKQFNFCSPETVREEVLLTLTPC

[1] = biological target: T2, porcine pancreatic lipase (Sus scrofa, UniProt P00591); experiment: In vitro assay using porcine pancreatic lipase (4-MUO hydrolysis, fluorometric); conditions: for inhibitory activity against PPL (in words): at the maximum concentration that could be tested;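 on all read-outs here: product 4-methylumbeliferone formation tracked fluorometrically, catalytic rate from RFU slope over the 10–30 min window, compounds checked beforehand for own fluorescence, at least three independent experiments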
T2 sequence (P00591 1-450): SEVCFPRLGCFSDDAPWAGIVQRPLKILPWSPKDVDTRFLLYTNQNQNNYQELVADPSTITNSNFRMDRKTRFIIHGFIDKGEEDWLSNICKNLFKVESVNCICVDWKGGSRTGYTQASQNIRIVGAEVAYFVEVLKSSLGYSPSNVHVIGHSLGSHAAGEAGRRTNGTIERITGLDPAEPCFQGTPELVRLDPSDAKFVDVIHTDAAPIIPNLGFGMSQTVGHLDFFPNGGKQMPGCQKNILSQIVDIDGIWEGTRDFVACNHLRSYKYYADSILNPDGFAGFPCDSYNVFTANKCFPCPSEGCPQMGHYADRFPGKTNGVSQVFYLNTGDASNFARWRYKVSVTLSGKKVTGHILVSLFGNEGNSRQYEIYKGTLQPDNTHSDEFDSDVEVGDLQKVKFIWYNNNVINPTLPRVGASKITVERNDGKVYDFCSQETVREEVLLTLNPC

[2] = biological target: T2, porcine pancreatic lipase; experiment: Inhibition kinetics of porcine pancreatic lipase (nonlinear regression, Solver); format: biochemical; design: compare it to the effects of the porcine pancreas (type II, EC 3.1.1.3); from tissue; host or cells: porcine pancreas (type II preparation); conditions: porcine pancreatic lipase
[3] = at 50 μM, read-out: PL Inhibition (%) ± SEM, Human
[4] = read-out: PL Inhibition (%) ± SEM, Porcine
[5] = read-out: PL Inhibition (%) ± SEM, Human
[6] = read-out: PL Inhibition (%) ± SEM, Human, at 50 μM

| Compound | inhibition at 50 µM (human pancreatic lipase; [3]) [%] | inhibitory activity against HPL (in words) (human pancreatic lipase) | inhibitory activity against PPL (in words) [1] | inhibition at 50 µM [1, 4] [%] | other results |
| --- | --- | --- | --- | --- | --- |
| O=c1c(O[C@@H]2O[C@H](CO)[C@@H](O)[C@H](O)[C@H]2O)c(-c2ccc(O)cc2)oc2cc(O)cc(O)c12 [Flavonoid 25, Astragalin] | 34 ± 1 | did not show significant inhibitory activity | did not show significant inhibitory activity | < 30 |  |
| O=c1c(O)c(-c2ccc(O)cc2)oc2cc(OC3OC(CO)C(O)C(O)C3O)cc(O)c12 (stereo not shown) [Flavonoid 26, Populnin] |  | did not show significant inhibitory activity | did not show significant inhibitory activity |  | inhibition at 100 µM (human pancreatic lipase; [5]): < 30%; inhibition at 100 µM [1, 4]: < 30% |
| O=c1c(O)c(-c2ccc(O)c(O)c2)oc2cc(O)cc(O)c12 [Flavonoid 27, Quercetin] |  |  |  |  | inhibition at 75 µM (human pancreatic lipase; read-out: PL Inhibition (%) ± SEM, Human, at 75 μM): < 46%; Inhibition Model [2]: Competitive; Vmax ([2]; ± SEM, in µmol/min): 354 ± 3 |
| CCCCc1c(-c2ccc(O)c(O)c2)oc2cc(O)cc(O)c2c1=O [Flavonoid 28] |  |  |  |  | IC50 (human pancreatic lipase): 42 ± 2 µM; IC50 [1]: 13 ± 1 µM |
| CCCCCCc1c(-c2ccc(O)c(O)c2)oc2cc(O)cc(O)c2c1=O [Flavonoid 29] |  |  |  |  | IC50 (human pancreatic lipase): 16.4 ± 0.7 µM; IC50 [1]: 10.1 ± 0.4 µM |
| O=c1c(OC2OC(CO)C(O)C(O)C2O)c(-c2ccc(O)c(O)c2)oc2cc(O)cc(O)c12 (stereo not shown) [Flavonoid 31] | < 30 | did not show significant inhibitory activity | did not show significant inhibitory activity | < 30 |  |
| C[C@@H]1O[C@@H](OC[C@H]2O[C@@H](Oc3c(-c4ccc(O)c(O)c4)oc4cc(O)cc(O)c4c3=O)[C@H](O)[C@@H](O)[C@@H]2O)[C@H](O)[C@H](O)[C@H]1O [Flavonoid 32, Rutin] | 34 ± 1 | did not show significant inhibitory activity | did not show significant inhibitory activity | < 30 |  |
| O=c1c(O)c(-c2ccc(O)c(O)c2)oc2cc(O[C@@H]3O[C@H](CO)[C@@H](O)[C@H](O)[C@H]3O)cc(O)c12 [Flavonoid 33, Quercimeritrin] | < 30 | did not show significant inhibitory activity | did not show significant inhibitory activity | < 30 |  |
| O=c1c(O)c(-c2ccc(O[C@@H]3O[C@H](CO)[C@@H](O)[C@H](O)[C@H]3O)c(O)c2)oc2cc(O)cc(O)c12 [Flavonoid 34, Spiraeoside] | < 30 | did not show significant inhibitory activity | did not show significant inhibitory activity | < 30 |  |
| O=c1c(OC2OC(CO)C(O)C(O)C2O)c(-c2ccc(OC3OC(CO)C(O)C(O)C3O)c(O)c2)oc2cc(O)cc(O)c12 (stereo not shown) [Flavonoid 35] |  | did not show significant inhibitory activity | did not show significant inhibitory activity | < 30 | inhibition at 50 µM (human pancreatic lipase; [6]): < 30% |
| O=c1cc(-c2cc(O)c(O)c(O)c2)oc2cccc(O)c12 [Flavonoid 36] |  |  |  |  | IC50 (human pancreatic lipase): 7 ± 1 µM; IC50 [1]: 20 ± 3 µM |
| Oc1cc(O)c2c(c1)O[C@H](c1ccc(O)c(O)c1)[C@H](O)C2 [Flavonoid 39, (–)-Epicatechin] |  |  |  |  | inhibition at 100 µM (human pancreatic lipase; [5]): < 30%; inhibition at 100 µM [1, 4]: < 30% |
| O=c1cc(-c2ccccc2)oc2c(O)c(O)cc(O)c12 [Flavonoid 42, Norwogonin] |  |  |  |  | IC50 (human pancreatic lipase): 79 ± 3 µM; IC50 [1]: 98 ± 9 µM |
| O=c1cc(-c2ccc(O)c(O)c2)oc2c(O)c(O)ccc12 [Flavonoid 43] | < 30 |  |  | < 30 |  |
| O=c1c(O)c(-c2ccc(O)cc2)oc2c(O)c(O)ccc12 [Flavonoid 44] | < 30 |  |  | 42 ± 2 |  |
| O=c1c(O)c(-c2ccc(O)c(O)c2)oc2c(O)c(O)ccc12 [Flavonoid 45, Melanoxetin] |  |  |  |  | inhibition at 25 µM (human pancreatic lipase; at 25 μM, read-out: PL Inhibition (%) ± SEM, Human): < 30%; inhibition at 25 µM [1, 4]: < 30% |
| O=c1c(O)c(-c2ccc(O)cc2)oc2c(O)c(O)cc(O)c12 [Flavonoid 46, Herbacetin] | 39 ± 3 |  |  | 46 ± 4 |  |
| O=c1c(O)c(-c2ccc(O)c(O)c2)oc2c(O)c(O)cc(O)c12 [Flavonoid 47, Gossypetin] |  |  |  | 36 ± 3 | inhibition at 50 µM (human pancreatic lipase; [6]): 37 ± 1% |
| O=c1c(O)c(-c2ccc(O)c(O)c2)oc2c(O[C@@H]3O[C@H](CO)[C@@H](O)[C@H](O)[C@H]3O)c(O)cc(O)c12 [Flavonoid 48, Gossypin] |  | did not show significant inhibitory activity | did not show significant inhibitory activity |  | inhibition at 12.5 µM (human pancreatic lipase; at 12.5 μM, read-out: PL Inhibition (%) ± SEM, Human): < 30%; inhibition at 12.5 µM [1, 4]: < 30% |
